Assay results taken from patent US20230123334A1, “AMINO LIPID COMPOUND, PREPARATION METHOD THEREFOR, AND APPLICATION THEREOF” (SHENZHEN SHENXIN BIOTECHNOLOGY CO., LTD., priority 2020, published 2023).

Tested on: HEK293 cells
Assay: Preliminary screening as DNA vectors, GFP transfection of HEK293 cells
Type: cell-based
Settings: amino lipid/DOPE liposome with 75 ng plasmid DNA (psin-EGFP-IRES-Puro); number of GFP-expressing cells divided by total nuclei (Hoechst)
How it was run: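 HEK293 cells in DMEM/10% FBS transfected with 75 ng EGFP plasmid per well complexed with amino lipid/DOPE liposomes in pH 5.6 sodium acetate. Hoechst nuclear stain added 20-24 h post-transfection, then cells cultured another 20-24 h. Confocal imaging gives GFP-positive cells as % of total nuclei.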

Row | SMILES | Absolute DNA transfection efficiency in HEK293 cells
1 | CCCCCCCCCCCCN(CCCCCCCCCCCC)c1nc(NCCN2CCOCC2)nc(SCCCCCCCCCCC)n1 [S11^2N12 D2] | 0.0%
2 | CCCCCCCCCCCCN(CCCCCCCCCCCC)c1nc(NCCN2CCCC2)nc(SCCCCCCCCCCC)n1 [S11^2N12 D3] | 0.0%
3 | CCCCCCCCCCCCN(CCCCCCCCCCCC)c1nc(NCCN2CCCCC2)nc(SCCCCCCCCCCC)n1 [S11^2N12 D4] | 0.0%
4 | CCCCCCCCCCCCN(CCCCCCCCCCCC)c1nc(NCCN2CCN(C)CC2)nc(SCCCCCCCCCCC)n1 [S11^2N12 D5] | 0.1%
5 | CCCCCCCCCCCCN(CCCCCCCCCCCC)c1nc(NCCCN(C)C)nc(SCCCCCCCCCCC)n1 [S11^2N12 D6] | 0.3%
6 | CCCCCCCCCCCCN(CCCCCCCCCCCC)c1nc(NCCN(CC)CC)nc(SCCCCCCCCCCC)n1 [S11^2N12 D7] | 0.1%
7 | CCCCCCCCCCCCN(CCCCCCCCCCCC)c1nc(NCCCN2CCOCC2)nc(SCCCCCCCCCCC)n1 [S11^2N12 D8] | 0.0%
8 | CCCCCCCCCCCCN(CCCCCCCCCCCC)c1nc(NCCCN2CCN(C)CC2)nc(SCCCCCCCCCCC)n1 [S11^2N12 D9] | 0.0%
9 | CCCCCCCCCCCCN(CCCCCCCCCCCC)c1nc(NCC2CCN(C)CC2)nc(SCCCCCCCCCCC)n1 [S11^2N12 D10] | 0.0%
10 | CCCCCCCCCCCCSc1nc(NCCCCCC)nc(NCCN(C)C)n1 [S12N6 D1] | 0.3%
11 | CCCCCCCCCCCCSc1nc(NCCCCCC)nc(NCCN2CCOCC2)n1 [S12N6 D2] | 0.1%
12 | CCCCCCCCCCCCSc1nc(NCCCCCC)nc(NCCN2CCCC2)n1 [S12N6 D3] | 0.0%
13 | CCCCCCCCCCCCSc1nc(NCCCCCC)nc(NCCN2CCCCC2)n1 [S12N6 D4] | 0.0%
14 | CCCCCCCCCCCCSc1nc(NCCCCCC)nc(NCCN2CCN(C)CC2)n1 [S12N6 D5] | 0.2%
15 | CCCCCCCCCCCCSc1nc(NCCCCCC)nc(NCCCN(C)C)n1 [S12N6 D6] | 1.1%
16 | CCCCCCCCCCCCSc1nc(NCCCCCC)nc(NCCN(CC)CC)n1 [S12N6 D7] | 6.5%
17 | CCCCCCCCCCCCSc1nc(NCCCCCC)nc(NCCCN2CCOCC2)n1 [S12N6 D8] | 0.1%
18 | CCCCCCCCCCCCSc1nc(NCCCCCC)nc(NCCCN2CCN(C)CC2)n1 [S12N6 D9] | 0.3%
19 | CCCCCCCCCCCCSc1nc(NCCCCCC)nc(NCC2CCN(C)CC2)n1 [S12N6 D10] | 0.1%
20 | CCCCCCCCCCCCSc1nc(NCCCCCCC)nc(NCCN(C)C)n1 [S12N7 D1] | 6.9%
21 | CCCCCCCCCCCCSc1nc(NCCCCCCC)nc(NCCN2CCOCC2)n1 [S12N7 D2] | 0.1%
22 | CCCCCCCCCCCCSc1nc(NCCCCCCC)nc(NCCN2CCCC2)n1 [S12N7 D3] | 3.2%
23 | CCCCCCCCCCCCSc1nc(NCCCCCCC)nc(NCCN2CCCCC2)n1 [S12N7 D4] | 0.2%
24 | CCCCCCCCCCCCSc1nc(NCCCCCCC)nc(NCCN2CCN(C)CC2)n1 [S12N7 D5] | 3.6%

Row | SMILES | Absolute DNA transfection efficiency in HEK293 cells
25 | CCCCCCCCCCCCSc1nc(NCCCCCCC)nc(NCCCN(C)C)n1 [S12N7 D6] | 11.2%
26 | CCCCCCCCCCCCSc1nc(NCCCCCCC)nc(NCCN(CC)CC)n1 [S12N7 D7] | 3.4%
27 | CCCCCCCCCCCCSc1nc(NCCCCCCC)nc(NCCCN2CCOCC2)n1 [S12N7 D8] | 0.3%
28 | CCCCCCCCCCCCSc1nc(NCCCCCCC)nc(NCCCN2CCN(C)CC2)n1 [S12N7 D9] | 0.3%
29 | CCCCCCCCCCCCSc1nc(NCCCCCCC)nc(NCC2CCN(C)CC2)n1 [S12N7 D10] | 5.8%
30 | CCCCCCCCCCCCSc1nc(NCCCCCCCC)nc(NCCN(C)C)n1 [S12N8 D1] | 6.0%
31 | CCCCCCCCCCCCSc1nc(NCCCCCCCC)nc(NCCN2CCOCC2)n1 [S12N8 D2] | 0.1%
32 | CCCCCCCCCCCCSc1nc(NCCCCCCCC)nc(NCCN2CCCC2)n1 [S12N8 D3] | 1.5%
33 | CCCCCCCCCCCCSc1nc(NCCCCCCCC)nc(NCCN2CCCCC2)n1 [S12N8 D4] | 0.0%
34 | CCCCCCCCCCCCSc1nc(NCCCCCCCC)nc(NCCN2CCN(C)CC2)n1 [S12N8 D5] | 13.8%
35 | CCCCCCCCCCCCSc1nc(NCCCCCCCC)nc(NCCCN(C)C)n1 [S12N8 D6] | 43.1%
36 | CCCCCCCCCCCCSc1nc(NCCCCCCCC)nc(NCCN(CC)CC)n1 [S12N8 D7] | 0.1%
37 | CCCCCCCCCCCCSc1nc(NCCCCCCCC)nc(NCCCN2CCOCC2)n1 [S12N8 D8] | 0.0%
38 | CCCCCCCCCCCCSc1nc(NCCCCCCCC)nc(NCCCN2CCN(C)CC2)n1 [S12N8 D9] | 8.9%
39 | CCCCCCCCCCCCSc1nc(NCCCCCCCC)nc(NCC2CCN(C)CC2)n1 [S12N8 D10] | 16.3%
40 | CCCCCCCCCCCCSc1nc(NCCCCCCCCC)nc(NCCN(C)C)n1 [S12N9 D1] | 4.5%
41 | CCCCCCCCCCCCSc1nc(NCCCCCCCCC)nc(NCCN2CCOCC2)n1 [S12N9 D2] | 0.0%
42 | CCCCCCCCCCCCSc1nc(NCCCCCCCCC)nc(NCCN2CCCC2)n1 [S12N9 D3] | 7.0%
43 | CCCCCCCCCCCCSc1nc(NCCCCCCCCC)nc(NCCN2CCCCC2)n1 [S12N9 D4] | 0.1%
44 | CCCCCCCCCCCCSc1nc(NCCCCCCCCC)nc(NCCN2CCN(C)CC2)n1 [S12N9 D5] | 20.2%
45 | CCCCCCCCCCCCSc1nc(NCCCCCCCCC)nc(NCCCN(C)C)n1 [S12N9 D6] | 37.0%
46 | CCCCCCCCCCCCSc1nc(NCCCCCCCCC)nc(NCCN(CC)CC)n1 [S12N9 D7] | 0.8%
47 | CCCCCCCCCCCCSc1nc(NCCCCCCCCC)nc(NCCCN2CCOCC2)n1 [S12N9 D8] | 0.0%
48 | CCCCCCCCCCCCSc1nc(NCCCCCCCCC)nc(NCCCN2CCN(C)CC2)n1 [S12N9 D9] | 10.9%

Row | SMILES | Absolute DNA transfection efficiency in HEK293 cells
49 | CCCCCCCCCCCCSc1nc(NCCCCCCCCC)nc(NCC2CCN(C)CC2)n1 [S12N9 D10] | 11.3%
50 | CCCCCCCCCCCCSc1nc(NCCCCCCCCCCC)nc(NCCN(C)C)n1 [S12N11 D1] | 3.2%
51 | CCCCCCCCCCCCSc1nc(NCCCCCCCCCCC)nc(NCCN2CCOCC2)n1 [S12N11 D2] | 0.3%
52 | CCCCCCCCCCCCSc1nc(NCCCCCCCCCCC)nc(NCCN2CCCC2)n1 [S12N11 D3] | 30.3%
53 | CCCCCCCCCCCCSc1nc(NCCCCCCCCCCC)nc(NCCN2CCCCC2)n1 [S12N11 D4] | 1.0%
54 | CCCCCCCCCCCCSc1nc(NCCCCCCCCCCC)nc(NCCN2CCN(C)CC2)n1 [S12N11 D5] | 8.0%
55 | CCCCCCCCCCCCSc1nc(NCCCCCCCCCCC)nc(NCCCN(C)C)n1 [S12N11 D6] | 14.9%
56 | CCCCCCCCCCCCSc1nc(NCCCCCCCCCCC)nc(NCCN(CC)CC)n1 [S12N11 D7] | 5.8%
57 | CCCCCCCCCCCCSc1nc(NCCCCCCCCCCC)nc(NCCCN2CCOCC2)n1 [S12N11 D8] | 0.0%
58 | CCCCCCCCCCCCSc1nc(NCCCCCCCCCCC)nc(NCCCN2CCN(C)CC2)n1 [S12N11 D9] | 3.9%
59 | CCCCCCCCCCCCSc1nc(NCCCCCCCCCCC)nc(NCC2CCN(C)CC2)n1 [S12N11 D10] | 19.6%
60 | CCCCCCCCCCCCNc1nc(NCCN(C)C)nc(SCCCCCCCCCCCC)n1 [S12N12 D1] | 7.9%
61 | CCCCCCCCCCCCNc1nc(NCCN2CCOCC2)nc(SCCCCCCCCCCCC)n1 [S12N12 D2] | 0.0%
62 | CCCCCCCCCCCCNc1nc(NCCN2CCCC2)nc(SCCCCCCCCCCCC)n1 [S12N12 D3] | 31.4%
63 | CCCCCCCCCCCCNc1nc(NCCN2CCCCC2)nc(SCCCCCCCCCCCC)n1 [S12N12 D4] | 0.1%
64 | CCCCCCCCCCCCNc1nc(NCCN2CCN(C)CC2)nc(SCCCCCCCCCCCC)n1 [S12N12 D5] | 3.5%
65 | CCCCCCCCCCCCNc1nc(NCCCN(C)C)nc(SCCCCCCCCCCCC)n1 [S12N12 D6] | 9.1%
66 | CCCCCCCCCCCCNc1nc(NCCN(CC)CC)nc(SCCCCCCCCCCCC)n1 [S12N12 D7] | 3.7%
67 | CCCCCCCCCCCCNc1nc(NCCCN2CCOCC2)nc(SCCCCCCCCCCCC)n1 [S12N12 D8] | 0.0%
68 | CCCCCCCCCCCCNc1nc(NCCCN2CCN(C)CC2)nc(SCCCCCCCCCCCC)n1 [S12N12 D9] | 5.1%
69 | CCCCCCCCCCCCNc1nc(NCC2CCN(C)CC2)nc(SCCCCCCCCCCCC)n1 [S12N12 D10] | 9.3%
70 | CCCCCCCCCCCCCNc1nc(NCCN(C)C)nc(SCCCCCCCCCCCC)n1 [S12N13 D1] | 1.4%
71 | CCCCCCCCCCCCCNc1nc(NCCN2CCOCC2)nc(SCCCCCCCCCCCC)n1 [S12N13 D2] | 0.0%
72 | CCCCCCCCCCCCCNc1nc(NCCN2CCCC2)nc(SCCCCCCCCCCCC)n1 [S12N13 D3] | 3.6%
